Data taken from patent US20230130831A1, “METHODS FOR DETECTING AND TREATING JOINT DISEASE” (Washington University, priority 2021, published 2023).
One block for each compound: values may come before it. Where a SMILES comes first, the peptide text is derived from it. Bridges are numbered along the chain shown (N, C = ends). [ ]: non-standard residue; d: D form. The star is where a group is joined. X1 = CC1(C)C(/C=C/C=C/C=C/C=C2/N(CCC(=O)*)c3ccc4ccccc4c3C2(C)C)=[N+](CCC(=O)[O-])c2ccc3ccccc3c21

Columns and labels:
[1] = tested on: C57BL/6 mice with induced arthritis (K/BxN serum transfer); experiment: Serum transfer arthritis: clinical paw scores and ankle thickness after treatment; type: in vivo, mouse
Description: To establish serum transfer arthritis (STA), male 6-8 weeks old C57BL/6J mice were injected intraperitoneally with 150-175 μL of serum derived from F1 mice (8-9 weeks old). Day 0 denoted induction of serum transfer/disease. Clinical manifestation of arthritis in each paw was assessed daily on a scale of 0-3 with 0=no swelling or erythema, 1=slight swelling or erythema, 2=moderate erythema and swelling in multiple digits or entire paw, and 3=pronounced erythema and swelling of an entire paw, with a maximum score of 12 per mouse. The ankle thickness of two hind paws was measured using calipers. Animals were monitored for distress during arthritis induction, including their ability to move around the cage and access food/water. Experiments were blinded, where the technician responsible for clinical assessment of paw score and ankle measurements was blinded to treatment groups. […] Clinical paw scores and ankle measurements were obtained daily. […] Mice received intraperitoneal DEX (10 mg/kg/dose) daily over 6 days. Clinical paw scores and ankle measurements were obtained daily. […] C57BL/6 mice with induced arthritis (K/Bxn serum transfer) were imaged with 6 nmol intravenous LS301 at day 4 post-disease induction. […] Individual limbs of the mice were scored for paw edema and measured for ankle thickness by calipers.

[2] = tested on: Raw 264.7 macrophage cells; experiment: In-vitro anti-inflammatory effect: LPS-induced cytokines by cytokine bead array; type: cell-based; conditions: combined with near-infrared (780 nm) laser irradiation
Description: MTX alone and controls. Raw 264.7 macrophage cells were treated with methotrexate (MTX), LS301-MTX, LS301 alone, or LS301 combined with near-infrared (780 nm) laser irradiation. Levels of inflammation-associated (LPS-induced) cytokines, including IL-6 and IL-10, were measured by cytokine bead array.

[3] = target: pANXA2 (Homo sapiens, UniProt P07355); conditions: previously found; cited from earlier work
Sequence of pANXA2 (P07355 whole entry): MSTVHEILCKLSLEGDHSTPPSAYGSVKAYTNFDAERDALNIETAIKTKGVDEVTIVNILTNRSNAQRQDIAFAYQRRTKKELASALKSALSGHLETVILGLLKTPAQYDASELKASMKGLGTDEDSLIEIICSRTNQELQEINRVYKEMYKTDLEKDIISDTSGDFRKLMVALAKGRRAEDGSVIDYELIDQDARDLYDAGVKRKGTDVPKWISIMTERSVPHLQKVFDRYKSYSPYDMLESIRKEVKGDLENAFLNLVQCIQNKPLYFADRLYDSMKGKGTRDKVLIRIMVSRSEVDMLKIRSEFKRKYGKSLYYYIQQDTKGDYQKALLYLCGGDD

[4] = tested on: K/BxN (F1) mice with spontaneous arthritis; experiment: Whole-body near-infrared fluorescence imaging in K/BxN spontaneous arthritis mice
Description: The K/BxN mice with spontaneous arthritis (F1) were maintained in the laboratory. To establish serum transfer arthritis (STA), male 6-8 weeks old C57BL/6J mice were injected intraperitoneally with 150-175 μL of serum derived from F1 mice (8-9 weeks old). Day 0 denoted induction of serum transfer/disease. Clinical manifestation of arthritis in each paw was assessed daily on a scale of 0-3 with 0=no swelling or erythema, 1=slight swelling or erythema, 2=moderate erythema and swelling in multiple digits or entire paw, and 3=pronounced erythema and swelling of an entire paw, with a maximum score of 12 per mouse. The ankle thickness of two hind paws was measured using calipers. Animals were monitored for distress during arthritis induction, including their ability to move around the cage and access food/water.
In the K/BxN (F1) mice with spontaneous arthritis, inflammation occurs progressively in the paws, ankle, and knee joints leading to measurable local erythema and swelling. F1 mice with severe arthritis (9-10 weeks old) were injected intravenously with LS301 and imaged 18 h post-injection for near-infrared fluorescence using the Pearl Small Animal Imaging System.
Arthritic or control (non-diseased) mice were injected intravenously with 6 nmol LS301. […] Images shown represented at least two independent experiments and were taken at 18 h post-injection with mice in dorsal orientation.
Mice were injected intravenously with 6 nmol LS301. […] Images shown were taken at 18 h post-injection with mice in dorsal orientation. (A) Early stage RA (3-4 week old K/Bxn mice). (B) Intermediate stage RA ([…] K/Bxn mice). (C) Late-stage RA (9-10 week old K/Bxn mice). (D) Normal (control) C57BL/6J mice. (E) K/Bxn mice (3-4 weeks old) were injected with cypate dye (control) instead of LS301.
K/BxN mice (9-10 wk. old) were injected intravenously with 6 nmol LS301.

[5] = tested on: C57BL/6J mice with serum transfer arthritis; conditions: mouse, in vivo
Description: Animals were shaved. Excess hair was removed using commercially available hair removal cream. Mice were anesthetized with isoflurane for injection and imaging procedures. LS301 stock (or LS301-methotrexate or LS301-methylprednisolone derivative stock) in dimethyl sulfoxide solution was diluted in phosphate-buffered saline to a final concentration of 60 μM and injected via tail vein into mice. In-vivo near-infrared fluorescence using 785 nm excitation and 820 nm emission filters was assessed pre-injection, post-injection, and/or at indicated time points post-injection with a Pearl Small Animal Imaging System (LICOR Biotechnology, Lincoln, Nebr.). Regions of interest (ROIs) for fluorescence quantitation were drawn and analyzed using the Pearl Small Animal Imaging System software.
C57BL/6J mice with serum arthritis (days 5-6 post serum transfer) (left) or control C57BL/6J mice (right) were injected intravenously with 6 nmol LS301. […] Near-infrared fluorescence images were taken on the Pearl animal imaging system with λ=820 nm. […] ROIs were drawn around each organ/limb of interest and quantitated using the Pearl animal imaging system software.
C57BL/6 mice with induced arthritis (K/Bxn serum transfer, days 5-6 post serum transfer) were injected subcutaneously (flank) with 6 nmol LS301. […] Near-infrared fluorescence images were taken on Pearl Imaging System with λ=800 nm.

Compound: CN(Cc1cnc2nc(N)nc(N)c2n1)c1ccc(C(=O)N[C@@H](CCC(=O)O)C(=O)O)cc1 [methotrexate, reference compound]
clinical scores ([1]; three doses i.p. 2 mg/kg/dose over seven days, day 23 post-treatment initiation): clinical scores of mice had significantly decreased

Compound: CC1(C)C(/C=C/C=C/C=C/C=C2/N(CCC(=O)N[C@@H]3CSSC[C@@H](C(=O)N[C@@H](CCCCN)C(=O)O)NC(=O)[C@@H]4CCCN4C(=O)[C@H](CO)NC(=O)[C@H](CC(=O)O)NC(=O)[C@H](CCCNC(=N)N)NC(=O)CNC3=O)c3ccc4ccccc4c3C2(C)C)=[N+](CCC(=O)[O-])c2ccc3ccccc3c21 [LS301, cypate-cyclic (DCys-Gly-Arg-Asp-Ser-Pro-Cys)-Lys-OH] (X1-[dC]GRDSPCK-OH; disulfide 1-7)
effect on disease progression ([1]; imaging dose (6 nmol), LS301 alone): did not significantly affect disease progression
inflammatory state of macrophages (LPS-induced cytokines incl. IL-6, IL-10) [2]: suppress the inflammatory state of macrophages
affinity for pANXA2 [3]: high affinity
clearance from the body ([4]; mouse, in vivo, iv): 2.5 days
time point of contrast post-injection ([4]; mouse, in vivo, iv): ~18 h
kidney signal, arthritic mice vs controls [5]: possible nonsignificant trend toward increased kidney signal in arthritic mice when compared to controls

accumulation in extremities / regions of arthritic joint disease ([4]; K/BxN F1 arthritic mice, i.v., 18 h): No accumulation was found in extremities
Compound: CC1(C)C(/C=C/C=C/C=C/C=C2/N(CCC(=O)O)c3ccc4ccccc4c3C2(C)C)=[N+](CCC(=O)[O-])c2ccc3ccccc3c21 [cypate, reference compound]
